What all share (assay type): cell-based
The test system of experiment [1] is Staphylococcus aureus. Kind of experiment: antimicrobial activity (MIC) against Staphylococcus aureus.
Experiment [2] concerns Pseudomonas aeruginosa. Kind of experiment: antimicrobial activity (MIC) against Pseudomonas aeruginosa.
The subject of experiment [3] is Bacillus subtilis. Kind of experiment: antimicrobial activity (MIC) against Bacillus subtilis.

≈ marks a conversion by molar mass, not a printed value.

As to `O=C(NC1CN(C(Cc2ccc(O)cc2)C(=O)O)C1=O)C(=NO)c1ccccc1` (centres unmarked) [Compound F, 2-[3-(2-phenyl-2-hydroxyiminoacetamido)-2-oxo-1-azetidinyl]-3-(4-hydroxyphenyl)propionic acid], the MIC (as a rule, the least concentration at which growth counts as inhibited) in experiment [1] came out at 250 µg/mL (≈ 629 µM).

`NC(CCOc1ccc(C(=NO)C(=O)NC2CN(C(C(=O)O)c3cccs3)C2=O)cc1)C(=O)O` (centres unmarked) [Compound G] displayed an MIC in experiment [2] of 4 µg/mL (≈ 8.16 µM).

The compound `O=C(NC1CN(C(CSc2ccccc2)C(=O)O)C1=O)C(=NO)c1ccccc1` (centres unmarked) [Compound D, 2-[3-(2-phenyl-2-hydroxyiminoacetamido)-2-oxo-1-azetidinyl]-3-phenylthiopropionic acid] displayed an MIC in experiment [1] of 250 µg/mL (≈ 605 µM).

`O=C(NC1CN(C(C(=O)O)c2ccco2)C1=O)C(=NO)c1ccccc1` (centres unmarked) [Compound H, 2-[3-(2-phenyl-2-hydroxyiminoacetamido)-2-oxo-1-azetidinyl]-2-(2-furyl)acetic acid] gave a minimum inhibitory concentration (MIC) in experiment [2] of 60 µg/mL (≈ 168 µM).

As to `O=C(NC1CN(C(C(=O)O)c2cccc3ccccc23)C1=O)C(=NO)c1ccccc1` (centres unmarked) [Compound E, 2-[3-(2-phenyl-2-hydroxyiminoacetamido)-2-oxo-1-azetidinyl]-2-(1-naphthyl)acetic acid], the lowest concentration to inhibit growth in experiment [1] (MIC) was 60 µg/mL (≈ 144 µM).

`O=C(O)CN1CC(NC(=O)Cc2ccccc2)C1=O` (centres unmarked) [Compound A, 2-(3-phenylacetamido-2-oxo-1-azetidinyl)acetic acid]: the MIC in experiment [3] worked out at 250 µg/mL (≈ 953 µM).

As for `NC(CCOc1ccc(C(=NO)C(=O)NC2CN(C(C(=O)O)c3ccc(O)cc3)C2=O)cc1)C(=O)O` (centres unmarked) [Compound C, 2-[3-[2-{4-(3-amino-3-carboxypropoxy)phenyl}-2-hydroxyiminoacetamido]-2-oxo-1-azetidinyl]-2-(4-hydroxyphenyl)acetic acid], in experiment [2], the MIC turned out to be 2.5 µg/mL (≈ 5 µM).

As to `NC(CCOc1ccc(C(=NO)C(=O)NC2CN(C(C(=O)O)c3ccccc3)C2=O)cc1)C(=O)O` (centres unmarked) [Compound B, 2-[3-[2-{4-(3-amino-3-carboxypropoxy)phenyl}-2-hydroxyiminoacetamido]-2-oxo-1-azetidinyl]-2-phenylacetic acid], 4 µg/mL (≈ 8.26 µM) was the least that counted as inhibitory in experiment [2] (MIC).

Values taken from patent US4264498A, “Process for the preparation of 1,3-disubstituted-2-azetidinones from triazines” (Fujisawa Pharmaceutical Co., Ltd., priority 1976, dated 1981).
